ChEMBL document CHEMBL3217516, “Library synthesis and cytotoxicity of a family of 2-phenylacrylonitriles and discovery of an estrogen dependent breast cancer lead compound” (Medchemcomm, 2011)

Key:
Assay type in all cases: functional
[1] = Cytotoxicity against human MIA cells after 72 hrs by MTT assay
[2] = system: A-431; assay: Cytotoxicity against human A431 cells after 72 hrs by MTT assay; settings: A-431, 72 h
[3] = Cytotoxicity against human BE(2)-C cells after 72 hrs by MTT assay
[4] = system: SW480; assay: Cytotoxicity against human SW480 cells after 72 hrs by MTT assay; settings: SW480, 72 h
[5] = system: HT-29; assay: Cytotoxicity against human HT-29 cells after 72 hrs by MTT assay; settings: HT-29, 72 h
[6] = Cytotoxicity against human H460 cells after 72 hrs by MTT assay; settings: NCI-H460, 72 h
[7] = system: DU-145; assay: Cytotoxicity against human DU145 cells after 72 hrs by MTT assay; settings: DU-145, 72 h
[8] = Cytotoxicity against human SJ-G2 cells after 72 hrs by MTT assay; settings: SJ-G2, 72 h
[9] = system: A2780; assay: Cytotoxicity against human A2780 cells after 72 hrs by MTT assay; settings: A2780, 72 h
[10] = system: MCF7; assay: Cytotoxicity against human MCF7 cells after 72 hrs by MTT assay; settings: MCF7, 72 h
[11] = system: DU-145; assay: Cytotoxicity against human DU145 cells at 100 uM after 72 hrs by MTT assay; settings: DU-145, 72 h, read-out: GI
[12] = Cytotoxicity against human SJ-G2 cells at 100 uM after 72 hrs by MTT assay; settings: SJ-G2, 72 h, read-out: GI
[13] = system: MCF7; assay: Cytotoxicity against human MCF7 cells at 100 uM after 72 hrs by MTT assay; settings: MCF7, 72 h, read-out: GI
[14] = Cytotoxicity against human H460 cells at 100 uM after 72 hrs by MTT assay; settings: NCI-H460, 72 h, read-out: GI
[15] = system: HT-29; assay: Cytotoxicity against human HT-29 cells at 100 uM after 72 hrs by MTT assay; settings: HT-29, 72 h, read-out: GI
[16] = system: A2780; assay: Cytotoxicity against human A2780 cells at 100 uM after 72 hrs by MTT assay; settings: A2780, 72 h, read-out: GI
[17] = Cytotoxicity against human MIA cells at 100 uM after 72 hrs by MTT assay; settings: read-out: GI
[18] = system: A-431; assay: Cytotoxicity against human A431 cells at 100 uM after 72 hrs by MTT assay; settings: A-431, 72 h, read-out: GI
[19] = system: SW480; assay: Cytotoxicity against human SW480 cells at 100 uM after 72 hrs by MTT assay; settings: SW480, 72 h, read-out: GI
[20] = Cytotoxicity against human BE(2)-C cells at 100 uM after 72 hrs by MTT assay; settings: read-out: GI

SMILES | GI50 [1] [µM] | GI50 [2] [µM] | GI50 [3] [µM] | GI50 [4] [µM] | GI50 [5] [µM] | GI50 [6] [µM] | GI50 [7] [µM] | GI50 [8] [µM] | GI50 [9] [µM] | GI50 [10] [µM] | inhibition of growth at 100 µM [11] [%] | inhibition of growth at 100 µM [12] [%] | inhibition of growth at 100 µM [13] [%] | inhibition of growth at 100 µM [14] [%] | inhibition of growth at 100 µM [15] [%] | inhibition of growth at 100 µM [16] [%] | inhibition of growth at 100 µM [17] [%] | inhibition of growth at 100 µM [18] [%] | inhibition of growth at 100 µM [19] [%] | inhibition of growth at 100 µM [20] [%]
N#C/C(=C\c1ccc(F)cc1)c1ccc(Cl)c(Cl)c1 | 11 | – | – | – | – | – | – | – | – | – | – | – | – | – | – | – | – | – | – | –
COc1ccc(/C=C(\C#N)c2ccc(Cl)c(Cl)c2)cc1 | 0.7 | – | – | – | – | – | – | – | – | – | – | – | – | – | – | – | – | – | – | –
N#C/C(=C\c1ccc[nH]1)c1ccccc1 | 81 | 57 | 61 | 26 | 41 | 81 | > 100 | 46 | 25 | 17 | – | – | – | – | – | – | – | – | – | –
N#C/C(=C\c1ccc[nH]1)c1ccc([N+](=O)[O-])cc1 | 34 | 27 | 22 | 24 | 25 | 32 | 26 | 24 | 18 | 18 | – | – | – | – | – | – | – | – | – | –
N#C/C(=C\c1ccc[nH]1)c1ccc(F)cc1 | 63 | 37 | 43 | 24 | 31 | 52 | 59 | 30 | 25 | 15 | – | – | – | – | – | – | – | – | – | –
N#C/C(=C\c1ccc[nH]1)c1ccc(Cl)cc1 | 38 | 23 | 21 | 22 | 18 | 19 | 37 | 20 | 18 | 4 | – | – | – | – | – | – | – | – | – | –
N#C/C(=C\c1ccc(O)cc1)c1ccc(Cl)c(Cl)c1 | 28 | 21 | 22 | 36 | 30 | 26 | 45 | 21 | 20 | 23 | – | – | – | – | – | – | – | – | – | –
CC(=O)Oc1ccc(/C=C(\C#N)c2ccc(Cl)c(Cl)c2)cc1 | 38 | 25 | 22 | 27 | 18 | 33 | 47 | 21 | 18 | 25 | – | – | – | – | – | – | – | – | – | –
N#C/C(=C\c1ccncc1)c1ccc(Cl)c(Cl)c1 | 22 | 26 | 16 | 18 | 18 | 9.4 | 24 | 22 | 18 | 15 | – | – | – | – | – | – | – | – | – | –
N#C/C(=C\c1cc(O)cc(O)c1)c1ccc(Cl)c(Cl)c1 | > 100 | 88 | > 100 | 90 | > 100 | > 100 | > 100 | 95 | 93 | 28 | – | – | – | – | – | – | – | – | – | –
N#CC(Cc1ccc[nH]1)c1ccccc1 (configuration not stated) | – | – | – | – | – | – | – | – | – | – | 7 | 27 | 47 | 15 | 39 | 76 | 30 | 20 | 40 | 43
N#CC(Cc1ccc[nH]1)c1ccc(F)cc1 (configuration not stated) | 90 | 89 | 75 | 78 | 73 | 88 | 91 | 86 | 69 | 65 | – | – | – | – | – | – | – | – | – | –
N#CC(Cc1ccc[nH]1)c1ccc(Cl)cc1 (configuration not stated) | 58 | 58 | 45 | 53 | 37 | 58 | 60 | 52 | 26 | 26 | – | – | – | – | – | – | – | – | – | –
N#CC(Cc1ccc[nH]1)c1ccc([N+](=O)[O-])cc1 (configuration not stated) | 82 | 78 | 65 | 70 | 67 | 64 | 90 | 87 | 29 | 37 | – | – | – | – | – | – | – | – | – | –
